Source: the supplement of paper PMC10307832

Columns and labels:
Experiment in all cases: relative viability (nuclei count vs DMSO), 5 days (fraction); higher = more cells survive
Seliciclib + Lapatinib = compound: CC[C@H](CO)Nc1nc(NCc2ccccc2)c2ncn(C(C)C)c2n1 [Seliciclib] + CS(=O)(=O)CCNCc1ccc(-c2ccc3ncnc(Nc4ccc(OCc5cccc(F)c5)c(Cl)c4)c3c2)o1 [Lapatinib] (partner 2 µM)
In short: (§1)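 After 5 days of treatment, lung cancer cells in 1536-well plates were fixed and stained in a single step (final 0.05% Triton X-100, 1% formaldehyde, 1 ug/ml Hoechst) and their nuclei counted on 4× images. Treatment had been applied by pin tool the day after seeding as one drug alone or as a fixed anchor-drug dose with five library-drug doses (not always all listed) in √10 steps. Relative viability is the nuclei count of treated wells divided by that of vehicle wells, and values are medians of duplicate plates.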

Seliciclib + AZD7762 = compound: CC[C@H](CO)Nc1nc(NCc2ccccc2)c2ncn(C(C)C)c2n1 [Seliciclib] + NC(=O)Nc1cc(-c2cccc(F)c2)sc1C(=O)N[C@H]1CCCNC1 [AZD7762] (partner 0.2 µM)
In short: as §1

Seliciclib + Decitabine = compound: CC[C@H](CO)Nc1nc(NCc2ccccc2)c2ncn(C(C)C)c2n1 [Seliciclib] + Nc1ncn([C@H]2C[C@H](O)[C@@H](CO)O2)c(=O)n1 [Decitabine] (partner 2 µM)
In short: as §1

Seliciclib + Olaparib = compound: CC[C@H](CO)Nc1nc(NCc2ccccc2)c2ncn(C(C)C)c2n1 [Seliciclib] + O=C(c1cc(Cc2n[nH]c(=O)c3ccccc23)ccc1F)N1CCN(C(=O)C2CC2)CC1 [Olaparib] (partner 8 µM)
In short: as §1

Cell Line | relative viability (Seliciclib + Lapatinib; first compound 0.08 µM) | relative viability (Seliciclib + Lapatinib; first compound 0.253 µM) | relative viability (Seliciclib + Lapatinib; first compound 0.8 µM) | relative viability (Seliciclib + Lapatinib; first compound 2.53 µM) | relative viability (Seliciclib + Lapatinib; first compound 8 µM) | relative viability (Seliciclib + AZD7762; first compound 0.08 µM) | relative viability (Seliciclib + AZD7762; first compound 0.253 µM) | relative viability (Seliciclib + AZD7762; first compound 0.8 µM) | relative viability (Seliciclib + AZD7762; first compound 2.53 µM) | relative viability (Seliciclib + AZD7762; first compound 8 µM) | relative viability (Seliciclib + Decitabine; first compound 0.08 µM) | relative viability (Seliciclib + Decitabine; first compound 0.253 µM) | relative viability (Seliciclib + Decitabine; first compound 0.8 µM) | relative viability (Seliciclib + Decitabine; first compound 2.53 µM) | relative viability (Seliciclib + Decitabine; first compound 8 µM) | relative viability (Seliciclib + Olaparib; first compound 0.08 µM) | relative viability (Seliciclib + Olaparib; first compound 0.253 µM) | relative viability (Seliciclib + Olaparib; first compound 0.8 µM) | relative viability (Seliciclib + Olaparib; first compound 2.53 µM) | relative viability (Seliciclib + Olaparib; first compound 8 µM)
NCI-H3122 | 0.938 | 1.08 | 0.91 | 1.04 | 0.949 | 0.935 | 0.939 | 0.915 | 0.959 | 0.897 | 0.399 | 0.234 | 0.479 | 0.472 | 0.294 | 0.632 | 0.589 | 0.62 | 0.697 | 0.615
PC-3 [JPC-3] | 0.455 | 0.52 | 0.418 | 0.421 | 0.445 | 0.994 | 1 | 0.77 | 0.617 | 0.718 | 0.819 | 0.883 | 0.906 | 0.809 | 0.767 | 1.05 | 1.25 | 1.06 | 1.1 | 0.978
PC-14 | 0.306 | 0.262 | 0.315 | 0.309 | 0.263 | 0.358 | 0.35 | 0.358 | 0.354 | 0.331 | 0.211 | 0.228 | 0.222 | 0.252 | 0.25 | 0.286 | 0.285 | 0.29 | 0.343 | 0.266
RERF-LC-KJ | 0.852 | 0.783 | 0.913 | 0.928 | 0.788 | 0.861 | 0.894 | 0.992 | 0.837 | 0.789 | 0.711 | 0.671 | 0.737 | 0.637 | 0.65 | 0.963 | 0.883 | 0.937 | 0.823 | 0.708
